Here are results for 2 molecules from patent publication US9422238B2, “ICMT inhibitors” (National University of Singapore, priority 2012, dated 2016).

For experiment [1], the system named is human pancreatic cancer MIA PACA II cells. Nature of the experiment: Cell viability (MTS). The settings on record: MIA PaCa-2, Table 6, N = 2. Format: cell-based. Here is the method: (§1) Human hepatocellular carcinoma HepG2 and human pancreatic cancer MIA PACA II cells were obtained from ATCC (Rockville, Md.). They were grown in DMEM (high glucose, Invitrogen) supplemented with 10% FBS, 50 μg/mL penicillin and 50 μg/mL streptomycin, 37° C., 5% CO2 until they reached 80-90% confluency, after which they were subcultured. Passage numbers were kept within 7-14 passages for both cell types.

The subject of experiment [2] is HepG2, MIA PACA II, MDA-MB-231 and PC3 cells. Nature of the experiment: Cell viability on panel of 4 malignant cell lines. Format: cell-based. The following applies: Homo sapiens, MDA-MB-231, PC3, read-out: IC50 values, range over the malignant cell lines. The protocol:
Determinations were made in duplicates or triplicates.
Cell viability was determined from the expression:
as §1

Experiment [3] has as its system PC3 cells. Nature of the experiment: Immunofluorescence analysis of LC3 aggregation. It counts as cell-based, human. The settings on record: PC3, 48 h. The protocol: Cover slips were placed into the base of each well in a 24-well plate. PC3 cells were seeded at 10 000 cells/mL per well in media (DMEM Hi-glucose, 10% FBS, 50 μg/mL penicillin, 50 μg/mL streptomycin) and incubated for 24 h. After this time, cells were attached as a layer onto the exposed face of the cover slip. The media was carefully removed from the well without disrupting the cell layer on the cover slip. Test compound in DMEM (high glucose, 5% FBS) was added and incubated for 24 h or 48 h. DMSO concentration was kept at 0.05% per well, including control wells. At the end of the incubation period, media was removed, wells were washed thrice with PBS, followed by addition of chilled PBST (200 μL) per well for 10 minutes to permeabilize the cells. Cells were then fixed with 4% paraformaldehyde (300 μL), incubated for 15 minutes, and washed with cold PBS (3 times) to remove the fixing solution. To the cell layer fixed on the cover slip in the well was added 100 μL of anti-LC3 in PBST (1:1000). The plates were kept at 4° C. overnight after which each well was washed 3× with cold PBS. Rhodamine Red-X® secondary antibody (Jackson Immunoresearch Laboratories, West Grove, Pa.) was added, incubated (2 h, 25° C.) and removed by washing with PBS (3 times). The cover slips were carefully removed from the wells and mounted onto glass slides and sealed with nail polish. […]

The subject of experiment [4] is PC3 cells. Nature of the experiment: Colony formation (clonogenic) assay. The settings on record: PC3, 2 weeks; 8-12 1-3 μM, cysmethynil 15-25 μM. It counts as cell-based, human. The protocol: A flask ([…]) of PC3 cells in media (DMEM high glucose, 10% fetal bovine serum, 50 μg/mL penicillin, 50 μg/mL streptomycin) was grown to 80-90% confluency. The media was removed by pipetting and the cell layer washed with 1×PBS (5 mL). An aliquot of trypsin (1 mL, 0.25% trypsin-EDTA (1×)-phenol red, Invitrogen) was added to the plate, tapped gently for even distribution and incubated at 37° C., 5% CO2 for 1 min. The plate was quickly viewed under the microscope to confirm that cells have rounded up. Media (10 mL) was then added and the cell suspension transferred to a falcon tube (15 mL). An aliquot (10 μl) was transferred to a hemocytometer for cell counting. The suspension was then diluted to give the desired seeding concentration of 1000 cells per well in a 6-well plate. After seeding, the plate was gently tapped to help cells spread out within the wells. Plates were then incubated for 2 h (37° C., 5% CO2) for cell attachment to take place. The media was removed with a pipette, the cell layer in the well washed with PBS and replaced by a solution of the test compound in 2 mL of DMEM (containing 5% FBS, instead of 10% FBS). Test compounds were prepared in DMSO stock solutions. The final concentration of DMSO in the well was 0.05% v/v. Control plates were also prepared in which no test compound was added but with DMSO maintained at 0.05%. […]

Experiment [5] addresses Icmt (Homo sapiens, UniProt O60725). The following applies: background, cited from earlier work.

Like-named read-outs stand apart in the source and are kept apart here.

Chain of Icmt (O60725 whole entry, species assumed): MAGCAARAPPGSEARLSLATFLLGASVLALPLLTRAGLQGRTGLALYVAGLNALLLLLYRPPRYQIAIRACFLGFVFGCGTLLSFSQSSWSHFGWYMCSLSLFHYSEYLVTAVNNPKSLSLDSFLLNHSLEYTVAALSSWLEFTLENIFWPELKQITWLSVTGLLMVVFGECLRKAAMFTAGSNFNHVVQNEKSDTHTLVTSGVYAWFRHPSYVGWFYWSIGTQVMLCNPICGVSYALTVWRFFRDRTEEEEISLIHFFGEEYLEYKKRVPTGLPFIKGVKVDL

Regarding `CCCCCCCCn1cc(CN(CC)CC)c2cc(-c3cnc(N)nc3)ccc21` [Compound 8-12, 5-(3-Diethylaminomethyl-1-octyl-1H-indol-5-yl)-pyrimidin-2-ylamine], the concentration for half-maximal inhibition (IC50) (commonly the concentration needed to halve the response being measured) in experiment [1] is 1.6 µM; in experiment [2] it was 1600 to 2600 nM. For the same molecule, the “LC3 aggregation (immunofluorescence)” value in experiment [3] is “punctate LC3-positive (red) vacuoles were observed at 2.5 and 5 μM”. Also, the colony formation result in experiment [4] was “colony formation was evident only at the lowest concentration of 1 μM and not at higher concentrations (1.5 to 3 μM)”.

`CCCCCCCCn1cc(CC(N)=O)c2cc(-c3cccc(C)c3)ccc21` [Cysmethynil, 2-[5-(3-methylphenyl)-1-octyl-1H-indolo-3-yl]acetamide, reference compound]: 22.5 µM corresponded to half-maximal inhibition in experiment [1] (IC50). Further, the colony formation result in experiment [4] was “Colony formation was observed with 15 μM cysmethynil but not at higher concentrations (17.5 to 25 μM)”. In addition, the Ki in experiment [5] (read-out: Ki of initial reversible complex with the enzyme) is 2390 nM; in experiment [5] (time dependent inhibition, read-out: overall dissociation constant of EI* complex), 110 nM.
